Measurements published in patent US20250011300A1, “PIPERAZINYLSULFONYLARYL COMPOUNDS FOR TREATMENT OF BACTERIAL INFECTIONS” (Hoffmann-La Roche Inc., priority 2021, published 2025).
Converted amounts (≈) assume the structure as drawn.

Legend:
[1] = target: Escherichia coli LpxH (UDP-2,3-diacylglucosamine hydrolase) (Escherichia coli (strain K12), UniProt P43341); assay: 50% Inhibitory Concentration (IC50) to LpxH, UMP/CMP-Glo Glycosyltransferase Assay kit; format: biochemical
Description: Example 121: 50% Inhibitory Concentration (IC50) to UDP-2,3-diacylglucosamine hydrolase (LpxH)
The inhibitory potency of molecules to UDP-2,3-diacylglucosamine hydrolase (LpxH) was determined using the UMP/CMP-Glo™ Glycosyltransferase Assay kit. LpxH hydrolyzes the pyrophosphate bond of UDP-2,3-diacylglucosamine (UDP-DAG) to yield 2,3-diacylglucosamine 1-phosphate (lipid X) and UMP. The assay kit could quantify the UMP production by convert the UMP to ATP and generate light in a luciferase reaction. The compound's effect on the LpxH activity is detected by measuring the light using a luminometer (Envision).

[2] = test system: E. coli (ATCC 25922); assay: Minimal Inhibitory Concentration (MIC) assay, E. coli; format: cell-based; settings: Escherichia coli, ATCC25922; E. coli ATCC 25922, CAMHB, 20 hours at 35° C.; read-out: MIC E. coli ATCC 25922
Description: (§1) Example 122: Minimal Inhibitory Concentration Protocol (MIC) Assay
(§2) The in vitro potency of compounds to inhibit E. coli (ATCC 25922) and K. pneumonia (ATCC 43816) growth was assessed by MIC (Minimal Inhibitory Concentration) assay. Samples were prepared from 10 mM DMSO stock solutions. After serial 2-fold dilution in DMSO in a master plate (Greiner, Cat No: 651201), 180 μL sterile distilled water was added to 20 μL each aliquot of the samples. Then 10 μL diluted compounds were transferred into a new assay plate (Costar, 3599).
(§3) The growth medium Cation-Adjusted Mueller Hinton Broth (CAMHB) was prepared by adding the 20 mg per liter CaCl2) and 20 mg per liter MgCl2 into the MHB medium (Jianglai Company, sterilized).
(§4) Vials of each of the test microorganisms were maintained frozen in the vapor phase of a liquid nitrogen freezer. The bacteria E. coli ATCC 25922 (KWIKSTIK, 0335K) and K. pneumonia ATCC 43816 were taken out from liquid nitrogen freezer, then thawed in room temperature, and diluted in the CAMHB medium to achieve a final inoculum of 5×10^5 CFU/mL. 90 μL CAMHB with bacteria was dispensed to the assay plate and pipetted 5 times.
(§5) Then the assay plates were incubated for 20 hours at 35° C. in ambient air. Following incubation, the MIC (μg/mL), the lowest concentration of drug that inhibits visible growth of the microorganism was read and recorded throw the microscope.

[3] = test system: K. pneumonia (ATCC 43816); assay: Minimal Inhibitory Concentration (MIC) assay, K. pneumonia; format: cell-based; settings: Klebsiella pneumoniae; K. pneumoniae ATCC43816, CAMHB, 20 hours at 35° C.; read-out: MIC K. pneumoniae ATCC43816
Description: as §1, §2, §3, §4, §5

Chain of Escherichia coli LpxH (UDP-2,3-diacylglucosamine hydrolase) (P43341 whole entry): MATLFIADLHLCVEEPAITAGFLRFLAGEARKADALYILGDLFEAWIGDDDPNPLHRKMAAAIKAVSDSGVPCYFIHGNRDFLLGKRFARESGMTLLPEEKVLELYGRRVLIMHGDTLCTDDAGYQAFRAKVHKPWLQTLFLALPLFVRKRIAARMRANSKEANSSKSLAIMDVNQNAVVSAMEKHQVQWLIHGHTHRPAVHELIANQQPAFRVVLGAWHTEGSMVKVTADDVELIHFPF

SMILES | IC50 [1] [nM] | MIC [2] [µg/mL] | MIC [3] [µg/mL]
NC1CC(=O)N(c2ccc(S(=O)(=O)N3CCN(c4cc(C(F)(F)F)cc(Cl)n4)CC3)cc2)C1 (stereo not shown) [Example 1, 4-Amino-1-[4-[4-[6-chloro-4-(trifluoromethyl)-2-pyridyl]piperazin-1-yl]sulfonylphenyl]pyrrolidin-2-one] | 260 | 1.45 (≈ 2.88 µM) | 1.93 (≈ 3.83 µM)
NCC1CC(=O)N(c2ccc(S(=O)(=O)N3CCN(c4cc(C(F)(F)F)cc(Cl)n4)CC3)cc2)C1 (stereo not shown) [Example 2, 4-(Aminomethyl)-1-[4-[4-[6-chloro-4-(trifluoromethyl)-2-pyridyl]piperazin-1-yl]sulfonyl-phenyl]pyrrolidin-2-one] | 84.9 | 1.98 (≈ 3.82 µM) | 3.95 (≈ 7.63 µM)
NCC1CN(c2ccc(S(=O)(=O)N3CCN(c4cc(C(F)(F)F)cc(Cl)n4)CC3)cc2)C(=O)O1 (stereo not shown) [Example 3, 5-(Aminomethyl)-3-[4-[4-[6-chloro-4-(trifluoromethyl)-2-pyridyl]piperazin-1-yl]sulfonylphenyl]oxazolidin-2-one] | 460 | 3.96 (≈ 7.62 µM) | 1.98 (≈ 3.81 µM)
CC(=O)NCC1CN(c2ccc(S(=O)(=O)N3CCN(c4cc(C(F)(F)F)cc(Cl)n4)CC3)cc2)C(=O)O1 (stereo not shown) [Example 4, N-[[3-[4-[4-[6-chloro-4-(trifluoromethyl)-2-pyridyl]piperazin-1-yl]sulfonylphenyl]-2-oxo-oxazolidin-5-yl]methyl]acetamide] | 28.5 | 3.51 (≈ 6.25 µM) | 7.03 (≈ 12.5 µM)
CC1(C)C(=O)N(c2ccc(S(=O)(=O)N3CCN(c4cc(C(F)(F)F)cc(Cl)n4)CC3)cc2)CC1N (stereo not shown) [Example 5, 4-Amino-1-[4-[4-[6-chloro-4-(trifluoromethyl)-2-pyridyl]piperazin-1-yl]sulfonylphenyl]-3,3-dimethyl-pyrrolidin-2-one] | 154 | 8.08 (≈ 15.2 µM) | 16.1 (≈ 30.4 µM)
NCC1COC(=O)N1c1ccc(S(=O)(=O)N2CCN(c3cc(C(F)(F)F)cc(Cl)n3)CC2)cc1 (stereo not shown) [Example 6, 4-(Aminomethyl)-3-[4-[4-[6-chloro-4-(trifluoromethyl)-2-pyridyl]piperazin-1-yl]sulfonylphenyl]oxazolidin-2-one] | 44.2 | 1.98 (≈ 3.81 µM) | 1.98 (≈ 3.81 µM)
N[C@H]1CN(c2ccc(S(=O)(=O)N3CCN(c4cc(C(F)(F)F)cc(Cl)n4)CC3)cc2)C1=O [Example 7, (3S)-3-amino-1-[4-[4-[6-chloro-4-(trifluoromethyl)-2-pyridyl]piperazin-1-yl]sulfonylphenyl]azetidin-2-one] | 63.3 | 3.78 (≈ 7.72 µM) | 5.66 (≈ 11.6 µM)
NC1CCN(c2ccc(S(=O)(=O)N3CCN(c4cc(C(F)(F)F)cc(Cl)n4)CC3)cc2)C1=O (stereo not shown) [Example 8, 3-Amino-1-[4-[4-[6-chloro-4-(trifluoromethyl)-2-pyridyl]piperazin-1-yl]sulfonylphenyl]pyrrolidin-2-one] | 117 | 3.86 (≈ 7.66 µM) | 7.72 (≈ 15.3 µM)
NCCC1CN(c2ccc(S(=O)(=O)N3CCN(c4cc(C(F)(F)F)cc(Cl)n4)CC3)cc2)C(=O)O1 (stereo not shown) [Example 9, 5-(2-Aminoethyl)-3-[4-[4-[6-chloro-4-(trifluoromethyl)-2-pyridyl]piperazin-1-yl]sulfonylphenyl]oxazolidin-2-one] | 24.3 | 1.78 (≈ 3.33 µM) | 3.57 (≈ 6.69 µM)
O=C1CC2(CCCCN2)CN1c1ccc(S(=O)(=O)N2CCN(c3cc(C(F)(F)F)cc(Cl)n3)CC2)cc1 (stereo not shown) [Example 10, 2-[4-[4-[6-Chloro-4-(trifluoromethyl)-2-pyridyl]piperazin-1-yl]sulfonylphenyl]-2,6-diazaspiro[4.5]decan-3-one] | 19.7 | 1.05 (≈ 1.88 µM) | 4.2 (≈ 7.53 µM)
O=C1CC2(CCNCC2)CN1c1ccc(S(=O)(=O)N2CCN(c3cc(C(F)(F)F)cc(Cl)n3)CC2)cc1 [Example 11, 2-[4-[4-[6-Chloro-4-(trifluoromethyl)-2-pyridyl]piperazin-1-yl]sulfonylphenyl]-2,8-diazaspiro[4.5]decan-3-one] | 23.3 | 2.1 (≈ 3.76 µM) | 4.2 (≈ 7.53 µM)
O=C1CC2(CNC2)CN1c1ccc(S(=O)(=O)N2CCN(c3cc(C(F)(F)F)cc(Cl)n3)CC2)cc1 [Example 12, 6-[4-[4-[6-Chloro-4-(trifluoromethyl)-2-pyridyl]piperazin-1-yl]sulfonylphenyl]-2,6-diazaspiro[3.4]octan-7-one] | 69.8 | 2.01 (≈ 3.79 µM) | 4.03 (≈ 7.6 µM)
O=C1CC2(CNCCN2)CN1c1ccc(S(=O)(=O)N2CCN(c3cc(C(F)(F)c4ccccc4)cc(Cl)n3)CC2)cc1 (stereo not shown) [Example 85, 2-[4-[4-[6-Chloro-4-[difluoro(phenyl)methyl]-2-pyridyl]piperazin-1-yl]sulfonylphenyl]-2,6,9-triazaspiro[4.5]decan-3-one] |  | 2.29 (≈ 3.71 µM) | 2.29 (≈ 3.71 µM)
NCC1CCC(=O)N1c1ccc(S(=O)(=O)N2CCN(c3cc(C(F)(F)c4ccccc4)cc(Cl)n3)CC2)cc1 (stereo not shown) [Example 86, 5-(Aminomethyl)-1-[4-[4-[6-chloro-4-[difluoro(phenyl)methyl]-2-pyridyl]piperazin-1-yl]sulfonylphenyl]pyrrolidin-2-one] |  | 1.26 (≈ 2.19 µM) | 1.26 (≈ 2.19 µM)
Cc1cnc(C(F)(F)c2cc(Cl)nc(N3CCN(S(=O)(=O)c4ccc(N5C[C@H](N)CC5=O)cc4)CC3)c2)cn1 [Example 111, (4R)-4-amino-1-[4-[4-[6-chloro-4-[difluoro-(5-methylpyrazin-2-yl)methyl]-2-pyridyl]piperazin-1-yl]sulfonylphenyl]pyrrolidin-2-one] |  | 0.9 (≈ 1.56 µM) | 1.8 (≈ 3.11 µM)
Cc1cncc(C(F)(F)c2cc(Cl)nc(N3CCN(S(=O)(=O)c4ccc(N5C[C@H](N)CC5=O)cc4)CC3)c2)n1 [Example 112, (4R)-4-amino-1-[4-[4-[6-chloro-4-[difluoro-(6-methylpyrazin-2-yl)methyl]-2-pyridyl]piperazin-1-yl]sulfonylphenyl]pyrrolidin-2-one] |  | 0.45 (≈ 0.778 µM) | 0.45 (≈ 0.778 µM)
Cc1nc(C(F)(F)c2cc(Cl)nc(N3CCN(S(=O)(=O)c4ccc(N5C[C@H](N)CC5=O)cc4)CC3)c2)cnc1Cl [Example 113, (4R)-4-amino-1-[4-[4-[6-chloro-4-[(5-chloro-6-methyl-pyrazin-2-yl)-difluoro-methyl]-2-pyridyl]piperazin-1-yl]sulfonylphenyl]pyrrolidin-2-one] |  | 0.26 (≈ 0.424 µM) | 0.51 (≈ 0.833 µM)
C[C@H]1CNCC(C(F)(F)c2cc(Cl)nc(N3CCN(S(=O)(=O)c4ccc(N5C[C@H](N)CC5=O)cc4)CC3)c2)O1 (stereo partly drawn) [Example 114, (4R)-4-amino-1-[4-[4-[6-chloro-4-[difluoro-[cis-6-methylmorpholin-2-yl]methyl]-2-pyridyl]piperazin-1-yl]sulfonylphenyl]pyrrolidin-2-one] |  | 0.91 (≈ 1.56 µM) | 1.8 (≈ 3.08 µM)
CC1COC(C(F)(F)c2cc(Cl)nc(N3CCN(S(=O)(=O)c4ccc(N5C[C@H](N)CC5=O)cc4)CC3)c2)CN1 (stereo partly shown) [Example 115] |  | 0.97 (≈ 1.66 µM) | 1.9 (≈ 3.25 µM)
N[C@@H]1CC(=O)N(c2ccc(S(=O)(=O)N3CCN(c4cc(C(F)(F)C56CNC[C@H]5C6)cc(Cl)n4)CC3)cc2)C1 (stereo partly drawn) [Example 116, (4R)-4-amino-1-[4-[4-[4-[[cis-3-azabicyclo[3.1.0]hexan-1-yl]-difluoro-methyl]-6-chloro-2-pyridyl]piperazin-1-yl]sulfonylphenyl]pyrrolidin-2-one] |  | 0.47 (≈ 0.829 µM) | 0.94 (≈ 1.66 µM)
N[C@@H]1CC(=O)N(c2ccc(S(=O)(=O)N3CCN(c4cc(C(F)(F)C5C[C@H]5CO)cc(Cl)n4)CC3)cc2)C1 (stereo partly drawn) [Example 117, (4R)-4-amino-1-[4-[4-[6-chloro-4-[trans-difluoro-[2-(hydroxymethyl)cyclopropyl]methyl]-2-pyridyl]piperazin-1-yl]sulfonylphenyl]pyrrolidin-2-one] |  | 0.93 (≈ 1.67 µM) | 1.9 (≈ 3.42 µM)
NC[C@H]1CC[C@H](C(F)(F)c2cc(Cl)nc(N3CCN(S(=O)(=O)c4ccc(N5C[C@H](N)CC5=O)cc4)CC3)c2)CC1 [Example 118, (4R)-4-amino-1-[4-[4-[4-[[trans-4-(aminomethyl)cyclohexyl]-difluoro-methyl]-6-chloro-2-pyridyl]piperazin-1-yl]sulfonylphenyl]pyrrolidin-2-one] |  | 0.5 (≈ 0.837 µM) | 0.99 (≈ 1.66 µM)
N[C@@H]1CC(=O)N(c2ccc(S(=O)(=O)N3CCN(c4cc(C(F)(F)[C@H]5C[C@H](O)C5)cc(Cl)n4)CC3)cc2)C1 [Example 119, (4R)-4-amino-1-[4-[4-[6-chloro-4-[trans-difluoro-(3-hydroxycyclobutyl)methyl]-2-pyridyl]piperazin-1-yl]sulfonylphenyl]pyrrolidin-2-one] |  | 0.46 (≈ 0.827 µM) | 0.46 (≈ 0.827 µM)
